Measurements taken from ChEMBL document CHEMBL1150850, “Cytotoxic principles from Ventilago leiocarpa” (J Nat Prod, 2001).

Legend:
[1] = test system: Calu-1; assay: Inhibition of human Calu1 cell proliferation assessed as [3H]thymidine incorporation after 3 days by scintillation counting; assay type: functional, cell-based
[2] = test system: HeLa; assay: Inhibition of human HeLa cell proliferation assessed as [3H]thymidine incorporation after 3 days by scintillation counting; assay type: functional, cell-based
[3] = test system: K562; assay: Inhibition of human K562 cell proliferation assessed as [3H]thymidine incorporation after 3 days by scintillation counting; assay type: functional, cell-based
[4] = test system: Raji; assay: Inhibition of human Raji cell proliferation assessed as [3H]thymidine incorporation after 3 days by scintillation counting; assay type: functional, cell-based
[5] = test system: Vero; assay: Inhibition of african green monkey Vero cell proliferation assessed as [3H]thymidine incorporation after 3 days by scintillation counting; assay type: cell-based; conditions: Chlorocebus sabaeus
[6] = test system: WISH; assay: Inhibition of human WISH cell proliferation assessed as [3H]thymidine incorporation after 3 days by scintillation counting; assay type: functional, cell-based
[7] = test system: Calu-1; assay: Growth inhibition of human Calu1 cells assessed as [3H]thymidine incorporation at 50 uM after 3 days by scintillation counting; assay type: functional; conditions: read-out: GI
[8] = test system: Calu-1; assay: Growth inhibition of human Calu1 cells assessed as [3H]thymidine incorporation at 25 uM after 3 days by scintillation counting; assay type: functional; conditions: read-out: GI
[9] = test system: Calu-1; assay: Growth inhibition of human Calu1 cells assessed as [3H]thymidine incorporation at 12.5 uM after 3 days by scintillation counting; assay type: functional; conditions: read-out: GI
[10] = test system: Calu-1; assay: Growth inhibition of human Calu1 cells assessed as [3H]thymidine incorporation at 6.25 uM after 3 days by scintillation counting; assay type: functional; conditions: read-out: GI
[11] = test system: Calu-1; assay: Growth inhibition of human Calu1 cells assessed as [3H]thymidine incorporation at 3.125 uM after 3 days by scintillation counting; assay type: functional; conditions: read-out: GI
[12] = test system: HeLa; assay: Growth inhibition of human HeLa cells assessed as [3H]thymidine incorporation at 50 uM after 3 days by scintillation counting; assay type: functional; conditions: read-out: GI
[13] = test system: HeLa; assay: Growth inhibition of human HeLa cells assessed as [3H]thymidine incorporation at 25 uM after 3 days by scintillation counting; assay type: functional; conditions: read-out: GI
[14] = test system: HeLa; assay: Growth inhibition of human HeLa cells assessed as [3H]thymidine incorporation at 12.5 uM after 3 days by scintillation counting; assay type: functional; conditions: read-out: GI
[15] = test system: HeLa; assay: Growth inhibition of human HeLa cells assessed as [3H]thymidine incorporation at 6.25 uM after 3 days by scintillation counting; assay type: functional; conditions: read-out: GI
[16] = test system: HeLa; assay: Growth inhibition of human HeLa cells assessed as [3H]thymidine incorporation at 3.125 uM after 3 days by scintillation counting; assay type: functional; conditions: read-out: GI
[17] = test system: K562; assay: Growth inhibition of human K562 cells assessed as [3H]thymidine incorporation at 50 uM after 3 days by scintillation counting; assay type: functional; conditions: read-out: GI
[18] = test system: K562; assay: Growth inhibition of human K562 cells assessed as [3H]thymidine incorporation at 25 uM after 3 days by scintillation counting; assay type: functional; conditions: read-out: GI
[19] = test system: K562; assay: Growth inhibition of human K562 cells assessed as [3H]thymidine incorporation at 12.5 uM after 3 days by scintillation counting; assay type: functional; conditions: read-out: GI
[20] = test system: K562; assay: Growth inhibition of human K562 cells assessed as [3H]thymidine incorporation at 6.25 uM after 3 days by scintillation counting; assay type: functional; conditions: read-out: GI
[21] = test system: K562; assay: Growth inhibition of human K562 cells assessed as [3H]thymidine incorporation at 3.125 uM after 3 days by scintillation counting; assay type: functional; conditions: read-out: GI
[22] = test system: Raji; assay: Growth inhibition of human Raji cells assessed as [3H]thymidine incorporation at 50 uM after 3 days by scintillation counting; assay type: functional; conditions: read-out: GI
[23] = test system: Raji; assay: Growth inhibition of human Raji cells assessed as [3H]thymidine incorporation at 25 uM after 3 days by scintillation counting; assay type: functional; conditions: read-out: GI
[24] = test system: Raji; assay: Growth inhibition of human Raji cells assessed as [3H]thymidine incorporation at 12.5 uM after 3 days by scintillation counting; assay type: functional; conditions: read-out: GI
[25] = test system: Raji; assay: Growth inhibition of human Raji cells assessed as [3H]thymidine incorporation at 6.25 uM after 3 days by scintillation counting; assay type: functional; conditions: read-out: GI
[26] = test system: Raji; assay: Growth inhibition of human Raji cells assessed as [3H]thymidine incorporation at 3.125 uM after 3 days by scintillation counting; assay type: functional; conditions: read-out: GI
[27] = Growth inhibition of african green monkey Vero cells assessed as [3H]thymidine incorporation at 50 uM after 3 days by scintillation counting; assay type: cell-based; conditions: chlorocebus sabaeus, read-out: GI
[28] = Growth inhibition of african green monkey Vero cells assessed as [3H]thymidine incorporation at 25 uM after 3 days by scintillation counting; assay type: cell-based; conditions: chlorocebus sabaeus, read-out: GI
[29] = test system: Vero; assay: Growth inhibition of african green monkey Vero cells assessed as [3H]thymidine incorporation at 12.5 uM after 3 days by scintillation counting; assay type: cell-based; conditions: chlorocebus sabaeus, 72 h
[30] = Growth inhibition of african green monkey Vero cells assessed as [3H]thymidine incorporation at 6.25 uM after 3 days by scintillation counting; assay type: cell-based; conditions: chlorocebus sabaeus, read-out: GI
[31] = Growth inhibition of african green monkey Vero cells assessed as [3H]thymidine incorporation at 3.125 uM after 3 days by scintillation counting; assay type: cell-based; conditions: chlorocebus sabaeus, read-out: GI
[32] = test system: WISH; assay: Growth inhibition of human WISH cells assessed as [3H]thymidine incorporation at 50 uM after 3 days by scintillation counting; assay type: functional; conditions: read-out: GI
[33] = test system: WISH; assay: Growth inhibition of human WISH cells assessed as [3H]thymidine incorporation at 25 uM after 3 days by scintillation counting; assay type: functional; conditions: read-out: GI
[34] = test system: WISH; assay: Growth inhibition of human WISH cells assessed as [3H]thymidine incorporation at 12.5 uM after 3 days by scintillation counting; assay type: functional; conditions: read-out: GI
[35] = test system: WISH; assay: Growth inhibition of human WISH cells assessed as [3H]thymidine incorporation at 6.25 uM after 3 days by scintillation counting; assay type: functional; conditions: read-out: GI
[36] = test system: WISH; assay: Growth inhibition of human WISH cells assessed as [3H]thymidine incorporation at 3.125 uM after 3 days by scintillation counting; assay type: functional; conditions: read-out: GI

With `COC1=C(O)C(=O)c2c(cc3c(c2O)C(C)OC(C)C3)C1=O` (configuration not stated) [VENTILOQUINONE I] the IC50 [1] was > 100 µM, the IC50 [2] was > 100 µM and the IC50 [3] was > 100 µM. The IC50 [4] was > 100 µM, the IC50 [5] was > 100 µM and the IC50 [6] was > 100 µM.

With `CC[C@H](/C=C/[C@@H](C)[C@H]1CC[C@H]2[C@@H]3CC=C4C[C@@H](O)CC[C@]4(C)[C@H]3CC[C@]12C)C(C)C` [STIGMASTEROL] the IC50 [1] was > 100 µM, the IC50 [2] was > 100 µM and the IC50 [3] was > 100 µM. The IC50 [4] was > 100 µM, the IC50 [5] was > 100 µM and the IC50 [6] was > 100 µM.

With `O=C1c2c(O)cc(O)cc2O[C@H](c2ccc(O)cc2)[C@H]1O` [DIHYDROKAEMPFEROL] the IC50 [1] was > 100 µM, the IC50 [2] was > 100 µM and the IC50 [3] was > 100 µM. For the same compound, the IC50 [4] was > 100 µM, the IC50 [5] was > 100 µM and the IC50 [6] was > 100 µM.

In the case of `C=C(C)[C@@H]1CC[C@]2(C)CC[C@]3(C)[C@H](CC[C@@H]4[C@@]5(C)CC[C@H](O)C(C)(C)[C@@H]5CC[C@]43C)[C@@H]12` [LUPEOL], the IC50 [1] is reported as > 100 µM, the IC50 [2] is reported as > 100 µM and the IC50 [3] is reported as > 100 µM. The IC50 [4] was > 100 µM, the IC50 [5] was > 100 µM and the IC50 [6] was > 100 µM.

With `COc1cc(O)c2c(c1)C(=O)c1c(O)c(C)cc(O)c1C2=O` [PARIETIN] the IC50 [1] was > 100 µM, the IC50 [2] was > 100 µM and the IC50 [3] was > 100 µM. The IC50 [4] was > 100 µM, the IC50 [5] was > 100 µM and the IC50 [6] was > 100 µM.

With `Cc1cc(O)c2c(c1O)C(=O)c1cc(O)cc(O)c1C2=O` [CATENARIN] the IC50 [1] was > 100 µM, the IC50 [2] was > 100 µM and the IC50 [3] was > 100 µM. For the same compound, the IC50 [4] was > 100 µM, the IC50 [5] was > 100 µM and the IC50 [6] was > 100 µM.

Compound `Cc1cc(O)c2c(c1)C(=O)c1c(c(O)cc(O)c1-c1c(O)cc(O)c3c1C(=O)c1cc(C)cc(O)c1C3=O)C2=O` [SKYRIN] has an inhibition of growth at 50 µM [7] of 100%, an inhibition of growth at 25 µM [8] of 100% and an inhibition of growth at 12.5 µM [9] of 24.9%. It also gave an inhibition of growth at 6.25 µM [10] of 20.6%, an IC50 [1] of 15.5 µM and an inhibition of growth at 3.125 µM [11] of 14.3%. It also gave an inhibition of growth at 50 µM [12] of 100%, an inhibition of growth at 25 µM [13] of 100% and an inhibition of growth at 12.5 µM [14] of 55%. For the same compound, the inhibition of growth at 6.25 µM [15] was 27%, the inhibition of growth at 3.125 µM [16] was 5.8% and the IC50 [2] was 11.3 µM. The inhibition of growth at 50 µM [17] was 100%, the inhibition of growth at 25 µM [18] was 50.6% and the inhibition of growth at 12.5 µM [19] was 33.5%. For the same compound, the inhibition of growth at 6.25 µM [20] was 22.2%, the inhibition of growth at 3.125 µM [21] was 29.7% and the IC50 [3] was 27.3 µM. It also gave an inhibition of growth at 50 µM [22] of 100%, an inhibition of growth at 25 µM [23] of 82.1% and an inhibition of growth at 12.5 µM [24] of 48.1%. It also gave an inhibition of growth at 6.25 µM [25] of 36.8%, an inhibition of growth at 3.125 µM [26] of 33.8% and an IC50 [4] of 12.3 µM. The inhibition at 72 h, 50 µM [27] was 100%, the inhibition at 72 h, 25 µM [28] was 70.5% and the “growth inhibition (GI)” value [29] was 34.8%. For the same compound, the inhibition at 72 h, 6.25 µM [30] was 23.1%, the inhibition at 72 h, 3.125 µM [31] was 19.9% and the IC50 [5] was 18.3 µM. It also gave an inhibition of growth at 50 µM [32] of 100%, an inhibition of growth at 25 µM [33] of 60% and an inhibition of growth at 12.5 µM [34] of 37.8%. The inhibition of growth at 6.25 µM [35] was 23.4%, the inhibition of growth at 3.125 µM [36] was 24.7% and the IC50 [6] was 21.3 µM.
